The source of these data is PMC6017062, “Probing the Inhibitor versus Chaperone Properties of sp^2-Iminosugars towards Human β-Glucocerebrosidase: A Picomolar Chaperone for Gaucher Disease” (Molecules : A Journal of Synthetic Chemistry and Natural …, 2018).

Like-named read-outs stand apart in the source and are kept apart here.

Holding throughout (assay type): biochemical
Experiment [1] deals with T1, α-mannosidase from Jack bean (α-Manase) (Canavalia ensiformis, UniProt C0HJB3).
T1 construct: purchased
T1 sequence (C0HJB3 1-981): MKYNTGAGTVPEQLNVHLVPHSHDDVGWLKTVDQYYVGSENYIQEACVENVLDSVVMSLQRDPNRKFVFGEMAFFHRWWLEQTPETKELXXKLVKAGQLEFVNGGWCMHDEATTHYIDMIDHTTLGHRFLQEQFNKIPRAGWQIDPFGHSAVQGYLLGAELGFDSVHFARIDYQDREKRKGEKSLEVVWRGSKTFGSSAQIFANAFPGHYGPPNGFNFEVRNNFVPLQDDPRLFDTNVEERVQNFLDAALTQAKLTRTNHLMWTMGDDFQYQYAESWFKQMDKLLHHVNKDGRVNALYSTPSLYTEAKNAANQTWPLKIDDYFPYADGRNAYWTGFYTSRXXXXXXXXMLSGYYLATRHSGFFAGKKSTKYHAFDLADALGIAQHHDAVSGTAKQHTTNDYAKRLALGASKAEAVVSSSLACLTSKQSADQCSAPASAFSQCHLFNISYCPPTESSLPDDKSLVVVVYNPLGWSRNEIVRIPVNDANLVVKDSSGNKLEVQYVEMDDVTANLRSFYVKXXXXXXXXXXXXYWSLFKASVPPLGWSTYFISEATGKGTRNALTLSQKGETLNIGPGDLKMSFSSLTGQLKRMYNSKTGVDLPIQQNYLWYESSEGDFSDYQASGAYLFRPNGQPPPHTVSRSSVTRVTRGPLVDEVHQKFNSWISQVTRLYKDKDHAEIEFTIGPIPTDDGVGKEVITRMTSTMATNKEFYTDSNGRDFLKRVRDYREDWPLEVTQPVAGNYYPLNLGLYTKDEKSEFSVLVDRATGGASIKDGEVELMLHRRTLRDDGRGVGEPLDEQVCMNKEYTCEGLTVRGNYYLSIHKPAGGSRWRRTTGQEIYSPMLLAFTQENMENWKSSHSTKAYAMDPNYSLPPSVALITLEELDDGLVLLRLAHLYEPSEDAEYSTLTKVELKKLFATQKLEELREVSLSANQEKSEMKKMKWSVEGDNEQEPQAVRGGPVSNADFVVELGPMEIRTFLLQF
The experiment is described as follows: Commercial glycosidase inhibition: α-mannosidase from Jack bean (α-Manase). The conditions noted are these: mean ± SD, three determinations; competitive; n.i. = no inhibition detected at 1 mM. An excerpt: (§1) We first evaluated the inhibitory properties of the new nonreducing mono- and bicyclic sp^2-iminosugars 4–15 against a panel of commercial glycosidases that included the α-glucosidases maltase (yeast maltase; α-Glcase1) and isomaltase (α-Glcase2) from Saccharomyces cerevisiae and amyloglucosidase (α-Glcase3) from Aspergillus niger, the β-glucosidases from almonds (β-Glcase1) and bovine liver (β-Glcase2), the α-galactosidase from green coffee beans (α-Galase), the β-galactosidase from Escherichia coli (β-Galase), and the α-mannosidase from Jack bean (α-Manase).
(§2) Inhibition constant (Ki) values were determined by spectrophotometrically measuring the residual hydrolytic activities of the glycosidases against the respective o- (for β-galactosidase from E. coli) or p-nitrophenyl α- or β-D-glycopyranoside (for other glycosidases) in the presence of the iminosugars. Each assay was performed in phosphate buffer or phosphate-citrate buffer (for α- or β-mannosidase and amyloglucosidase) at the optimal pH for the enzymes. The reactions were initiated by addition of the enzyme to a solution of the substrate in the absence or presence of various inhibitor concentrations. The mixture was incubated for 10–30 min at 37 °C or 55 °C (for amyloglucosidase) and the reaction was quenched by addition of 1 M Na2CO3. Reaction times were appropriate to obtain 10–20% conversion of the substrate in order to achieve linear rates. The absorbance of the resulting mixture was determined at 405 nm. Approximate value of Ki was determined from the slope of Dixon plots using a fixed concentration of substrate (around the Km value for the different glycosidases) and various concentrations of inhibitor. Full Ki determinations and enzyme inhibition mode were determined from the slope of Lineweaver–Burk plots and double reciprocal analysis.

For experiment [2], the target named is T2, α-glucosidase maltase (yeast maltase; α-Glcase1) (Saccharomyces cerevisiae, UniProt P53341).
T2 construct: purchased
T2 sequence (P53341 whole entry): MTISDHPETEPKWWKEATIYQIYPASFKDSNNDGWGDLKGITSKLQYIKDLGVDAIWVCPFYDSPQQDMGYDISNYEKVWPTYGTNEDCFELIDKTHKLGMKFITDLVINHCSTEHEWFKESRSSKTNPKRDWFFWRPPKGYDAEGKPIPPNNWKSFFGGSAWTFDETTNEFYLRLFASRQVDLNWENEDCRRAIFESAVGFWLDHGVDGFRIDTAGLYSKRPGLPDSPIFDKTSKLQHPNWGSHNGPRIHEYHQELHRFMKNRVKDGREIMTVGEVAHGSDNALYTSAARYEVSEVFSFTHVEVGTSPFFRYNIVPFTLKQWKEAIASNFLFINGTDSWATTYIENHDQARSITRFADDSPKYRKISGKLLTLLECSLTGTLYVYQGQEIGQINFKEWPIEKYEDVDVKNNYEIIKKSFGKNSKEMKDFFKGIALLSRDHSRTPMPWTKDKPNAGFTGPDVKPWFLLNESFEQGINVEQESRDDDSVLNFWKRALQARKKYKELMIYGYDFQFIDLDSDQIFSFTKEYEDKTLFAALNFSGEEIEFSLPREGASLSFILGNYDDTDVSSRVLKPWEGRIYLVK
The experiment is described as follows: Commercial glycosidase inhibition: maltase (yeast maltase; α-Glcase1). The conditions noted are these: three determinations, competitive, n.i. = no inhibition detected at 1 mM.
Excerpt: as §1, §2

Experiment [3] deals with T3, β-galactosidase (β-Galase) (Escherichia coli, UniProt P00722).
T3 construct: purchased
T3 sequence (P00722 2-1024 limits assumed): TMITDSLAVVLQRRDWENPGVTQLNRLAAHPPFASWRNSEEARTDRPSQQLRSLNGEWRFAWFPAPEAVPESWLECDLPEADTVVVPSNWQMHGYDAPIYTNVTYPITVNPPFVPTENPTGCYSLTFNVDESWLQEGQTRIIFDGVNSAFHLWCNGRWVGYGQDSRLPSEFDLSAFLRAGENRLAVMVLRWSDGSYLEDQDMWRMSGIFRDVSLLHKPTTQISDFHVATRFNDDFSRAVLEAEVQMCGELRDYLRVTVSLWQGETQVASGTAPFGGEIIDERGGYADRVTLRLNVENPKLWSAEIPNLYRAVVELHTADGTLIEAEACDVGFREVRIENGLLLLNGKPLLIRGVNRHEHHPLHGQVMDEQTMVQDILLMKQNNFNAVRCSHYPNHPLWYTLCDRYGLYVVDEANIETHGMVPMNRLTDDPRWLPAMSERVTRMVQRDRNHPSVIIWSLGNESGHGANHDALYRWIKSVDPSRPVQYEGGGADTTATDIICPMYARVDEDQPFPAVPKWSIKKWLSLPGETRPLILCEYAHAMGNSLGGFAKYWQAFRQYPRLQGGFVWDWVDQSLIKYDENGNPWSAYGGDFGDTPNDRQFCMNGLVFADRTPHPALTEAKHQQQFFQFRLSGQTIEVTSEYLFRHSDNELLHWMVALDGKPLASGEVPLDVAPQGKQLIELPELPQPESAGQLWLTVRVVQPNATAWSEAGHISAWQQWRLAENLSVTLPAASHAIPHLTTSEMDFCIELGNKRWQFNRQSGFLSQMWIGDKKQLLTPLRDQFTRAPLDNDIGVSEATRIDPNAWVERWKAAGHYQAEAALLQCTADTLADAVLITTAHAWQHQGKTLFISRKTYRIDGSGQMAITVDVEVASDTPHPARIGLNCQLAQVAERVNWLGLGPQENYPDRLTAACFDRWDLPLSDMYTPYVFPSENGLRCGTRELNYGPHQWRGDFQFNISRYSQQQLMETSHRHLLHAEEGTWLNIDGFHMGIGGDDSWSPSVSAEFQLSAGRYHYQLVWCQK
The experiment is described as follows: Commercial glycosidase inhibition: β-galactosidase from E. coli (β-Galase). Particulars: mean ± SD, three determinations; competitive; n.i. = no inhibition detected at 1 mM.
Excerpt: as §1, §2

Experiment [4] concerns the target β-glucosidase from almonds (β-Glcase1). The experiment is described as follows: Commercial glycosidase inhibition: β-glucosidase from almonds (β-Glcase1). The conditions noted are these: mean ± SD, three determinations; competitive; n.i. = no inhibition detected at 1 mM.
Excerpt: as §1, §2

A further experiment deals with T4, isomaltase (α-Glcase2) (Saccharomyces cerevisiae, UniProt P53051).
T4 construct: purchased
T4 sequence (P53051 whole entry): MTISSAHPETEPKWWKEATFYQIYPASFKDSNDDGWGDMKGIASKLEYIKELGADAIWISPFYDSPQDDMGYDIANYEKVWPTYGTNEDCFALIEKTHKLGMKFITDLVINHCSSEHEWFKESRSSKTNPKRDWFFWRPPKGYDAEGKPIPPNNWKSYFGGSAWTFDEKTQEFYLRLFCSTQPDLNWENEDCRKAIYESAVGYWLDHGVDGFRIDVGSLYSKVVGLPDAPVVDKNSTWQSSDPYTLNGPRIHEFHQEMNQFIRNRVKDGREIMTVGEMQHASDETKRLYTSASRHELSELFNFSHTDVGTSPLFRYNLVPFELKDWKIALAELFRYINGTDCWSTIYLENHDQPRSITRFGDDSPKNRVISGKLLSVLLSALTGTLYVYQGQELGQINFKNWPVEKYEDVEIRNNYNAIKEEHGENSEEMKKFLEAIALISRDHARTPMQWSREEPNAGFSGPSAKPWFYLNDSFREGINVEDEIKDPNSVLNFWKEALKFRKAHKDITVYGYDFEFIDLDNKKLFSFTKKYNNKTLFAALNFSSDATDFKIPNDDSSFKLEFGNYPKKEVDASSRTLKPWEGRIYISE
The experiment is described as follows: Commercial glycosidase inhibition: isomaltase (α-Glcase2).
Excerpt: as §1, §2

The target of experiment [5] is T5, amyloglucosidase (α-Glcase3) (Aspergillus niger, UniProt P69328).
T5 construct: purchased
T5 sequence (P69328 25-640): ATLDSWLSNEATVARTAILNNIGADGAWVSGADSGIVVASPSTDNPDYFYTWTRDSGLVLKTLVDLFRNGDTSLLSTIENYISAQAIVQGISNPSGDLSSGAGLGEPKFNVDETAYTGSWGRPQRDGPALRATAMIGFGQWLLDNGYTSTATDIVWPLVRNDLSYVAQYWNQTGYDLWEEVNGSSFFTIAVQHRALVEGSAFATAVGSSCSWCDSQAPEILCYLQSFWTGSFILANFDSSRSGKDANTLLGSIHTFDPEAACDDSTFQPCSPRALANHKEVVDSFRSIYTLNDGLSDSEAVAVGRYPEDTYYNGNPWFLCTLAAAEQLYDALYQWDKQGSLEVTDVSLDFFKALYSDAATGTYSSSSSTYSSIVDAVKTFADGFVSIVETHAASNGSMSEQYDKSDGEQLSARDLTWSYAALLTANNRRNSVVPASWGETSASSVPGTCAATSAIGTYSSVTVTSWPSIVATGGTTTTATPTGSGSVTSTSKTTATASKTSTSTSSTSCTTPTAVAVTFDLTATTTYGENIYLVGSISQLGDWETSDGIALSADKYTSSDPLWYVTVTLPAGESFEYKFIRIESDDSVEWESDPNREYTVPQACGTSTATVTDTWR
The experiment is described as follows: Commercial glycosidase inhibition: amyloglucosidase (α-Glcase3). Particulars: mean ± SD, three determinations; competitive; n.i. = no inhibition detected at 1 mM.
Excerpt: as §1, §2

Experiment [6] addresses T6, α-galactosidase from green coffee beans (α-Galase) (Coffea arabica, UniProt Q42656).
T6 construct: purchased
The experiment is described as follows: Commercial glycosidase inhibition: α-galactosidase from green coffee beans (α-Galase). The conditions noted are these: mean ± SD, three determinations; competitive; n.i. = no inhibition detected at 1 mM.
Excerpt: as §1, §2

The mark [7] stands for this setting: mean ± SD, three determinations, competitive, n.i. = no inhibition detected at 1 mM.
[8] abbreviates: Dixon or Lineweaver-Burk plot, read-out: Ki against isomaltase (supplement figure legends).
Where [9] appears, read: mean ± SD, three determinations, competitive, n.i. = no inhibition detected at 1 mM, read-out: Ki α-Glcase2.

T6 sequence (Q42656 16-378): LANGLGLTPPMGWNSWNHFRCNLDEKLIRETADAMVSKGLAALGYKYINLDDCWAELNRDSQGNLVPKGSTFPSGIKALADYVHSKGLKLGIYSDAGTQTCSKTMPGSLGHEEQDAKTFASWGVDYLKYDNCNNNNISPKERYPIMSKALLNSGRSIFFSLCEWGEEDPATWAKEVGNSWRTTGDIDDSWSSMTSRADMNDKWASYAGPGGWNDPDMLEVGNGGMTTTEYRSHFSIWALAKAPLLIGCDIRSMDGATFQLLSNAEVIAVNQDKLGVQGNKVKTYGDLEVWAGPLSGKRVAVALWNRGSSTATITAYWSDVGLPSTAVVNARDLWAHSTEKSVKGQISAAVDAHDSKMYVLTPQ

With `CCCCN=C1SCC2C(O)C(O)C(O)CN12` (stereo not drawn) [Compound 5, 1-Deoxy-6-thio-5-N,6-S-(N′-butyliminomethylidene)nojirimycin], in experiment [1], the “Ki α-Manase” value is reported as “n.i”. In experiment [2] (mean ± SD), the “Ki α-Glcase1” value is “n.i”. Further, in experiment [3], the “Ki β-Galase” value was “n.i”. Moreover, in experiment [4], the Ki stood at 1.1 ± 0.1 µM. Moreover, the “Ki α-Glcase2” value on isomaltase (α-Glcase2) (setting [7]) is listed as “n.i”. The “Ki α-Glcase3” value in experiment [5] is “n.i”. For the same compound, the “Ki α-Galase” value in experiment [6] was “n.i”.

Turning to `OC1CN2C(=Nc3ccccc3)SCC2C(O)C1O` (stereo not drawn) [Compound 6, 1-Deoxy-6-thio-5-N,6-S-(N′-phenyliminomethylidene)nojirimycin], the “Ki α-Manase” value in experiment [1] is given as “n.i”. For the same compound, the Ki in experiment [2] (Ki α-Glcase1, mean ± SD) was 406 ± 20 µM; in experiment [4] it was 48 ± 4 µM; at isomaltase (α-Glcase2) (setting [8]), 44 ± 3 µM; in experiment [5] it was 44 ± 3 µM. In addition, the “Ki β-Galase” value in experiment [3] is on record as “n.i”. In addition, at isomaltase (α-Glcase2) (setting [7]), the “Ki α-Glcase2” value was “n.i”. Also, the “Ki α-Galase” value in experiment [6] is listed as “n.i”.

As for `CCCCCCCCN=C1SCC2C(O)C(O)C(O)CN12` [Compound 7, 5-N,6-S-(N′-Octyliminomethylidene)-6-thio-1-deoxy-L-idonojirimycin], the “Ki α-Manase” value in experiment [1] was “n.i”. In experiment [2] (mean ± SD), the “Ki α-Glcase1” value is listed as “n.i”. The “Ki β-Galase” value in experiment [3] is “n.i”. Besides, the Ki is 3.9 ± 0.3 µM in experiment [4] and 504 ± 32 µM in experiment [6]. In addition, the “Ki α-Glcase2” value on isomaltase (α-Glcase2) (setting [7]) was “n.i”. Also, the “Ki α-Glcase3” value in experiment [5] is recorded as “n.i”.

In the case of `CCCCN=C1SCC2C(O)C(O)C(O)CN12` [Compound 8, 5-N,6-S-(N′-Butyliminomethylidene)-6-thio-1-deoxy-L-idonojirimycin], in experiment [1], the “Ki α-Manase” value is “n.i”. The “Ki α-Glcase1” value in experiment [2] (mean ± SD) was “n.i”. Besides, the “Ki β-Galase” value in experiment [3] is listed as “n.i”. In addition, the Ki in experiment [4] is 19 ± 9 µM. For the same compound, on isomaltase (α-Glcase2) (setting [7]), the “Ki α-Glcase2” value is given as “n.i”. Besides, the “Ki α-Glcase3” value in experiment [5] is reported as “n.i”. For the same compound, in experiment [6], the “Ki α-Galase” value is “n.i”.

For the compound `OC1CN2C(=Nc3ccccc3)SCC2C(O)C1O` [Compound 9, 5-N,6-S-(N′-Phenyliminomethylidene)-6-thio-1-deoxy-L-idonojirimycin], the “Ki α-Manase” value in experiment [1] is “n.i”. Besides, the Ki in experiment [2] (Ki α-Glcase1, mean ± SD) was determined as 262 ± 15 µM; in experiment [4] it was 309 ± 19 µM; in experiment [6], 772 ± 35 µM. Also, in experiment [3], the “Ki β-Galase” value is “n.i”. The “Ki α-Glcase2” value on isomaltase (α-Glcase2) (setting [7]) is “n.i”. The “Ki α-Glcase3” value in experiment [5] is “n.i”.

For `CCCCCCCCNC(=S)N1C[C@H](O)[C@@H](O)[C@H](O)[C@H]1CO` [Compound 10, 1-Deoxy-N-(N′-octylthiocarbamoyl)nojirimicin], in experiment [1], the “Ki α-Manase” value was “n.i”. For the same compound, the Ki in experiment [2] (Ki α-Glcase1, mean ± SD) was 481 ± 27 µM; in experiment [4], 1.3 ± 0.1 µM; at isomaltase (α-Glcase2) (setting [9]), 116 ± 8 µM; in experiment [5], 129 ± 10 µM. Further, the “Ki β-Galase” value in experiment [3] is “n.i”. In addition, in experiment [6], the “Ki α-Galase” value is given as “n.i”.

As for `CCCCNC(=S)N1C[C@H](O)[C@@H](O)[C@H](O)[C@H]1CO` [Compound 11, 1-Deoxy-N-(N′-butylthiocarbamoyl)nojirimicin], in experiment [1], the “Ki α-Manase” value was “n.i”. Also, the Ki in experiment [2] (mean ± SD, read-out: Ki α-Glcase1) came out at 568 ± 30 µM; in experiment [4], 20 ± 2 µM; at isomaltase (α-Glcase2) (setting [9]) it was 121 ± 9 µM; in experiment [5], 213 ± 18 µM; in experiment [6], 847 ± 42 µM. In experiment [3], the “Ki β-Galase” value is recorded as “n.i”.

Regarding `OC[C@@H]1[C@@H](O)[C@H](O)[C@@H](O)CN1C(=S)Nc1ccccc1` [Compound 12, 1-Deoxy-N-(N′-phenylthiocarbamoyl)nojirimicin], the Ki in experiment [1] is 294 ± 18 µM; in experiment [2] (Ki α-Glcase1, mean ± SD), 60 ± 4 µM; in experiment [4], 23 ± 3 µM; at isomaltase (α-Glcase2) (setting [8]) it was 18 ± 2 µM; on isomaltase (α-Glcase2) (setting [9]) it was 10 ± 1 µM; in experiment [5], 18 ± 2 µM. Moreover, in experiment [6], the Ki turned out to be 122 ± 9 µM. The “Ki β-Galase” value in experiment [3] was “n.i”.

With `CCCCCCCCNC(=S)N1C[C@H](O)[C@@H](O)[C@H](O)[C@@H]1CO` [Compound 13, N-(N′-Octylthiocarbamoyl)-1-deoxy-L-idonojirimycin], in experiment [1], the “Ki α-Manase” value is “n.i”. In addition, the “Ki α-Glcase1” value in experiment [2] (mean ± SD) was “n.i”. The “Ki β-Galase” value in experiment [3] was “n.i”. In addition, the Ki in experiment [4] amounted to 227 ± 13 µM; in experiment [6] it was 60 ± 15 µM. For the same compound, the “Ki α-Glcase2” value on isomaltase (α-Glcase2) (setting [7]) is on record as “n.i”. Besides, the “Ki α-Glcase3” value in experiment [5] is reported as “n.i”.

On to `CCCCNC(=S)N1C[C@H](O)[C@@H](O)[C@H](O)[C@@H]1CO` [Compound 14, N-(N′-Butylthiocarbamoyl)-1-deoxy-L-idonojirimycin], for which the “Ki α-Manase” value in experiment [1] is on record as “n.i”. In addition, the “Ki α-Glcase1” value in experiment [2] (mean ± SD) was “n.i”. In addition, the “Ki β-Galase” value in experiment [3] is “n.i”. In addition, the inhibitory constant (Ki) in experiment [4] is 51 ± 13 µM. Besides, the “Ki α-Glcase2” value at isomaltase (α-Glcase2) (setting [7]) is listed as “n.i”. Moreover, the “Ki α-Glcase3” value in experiment [5] is “n.i”. Besides, in experiment [6], the “Ki α-Galase” value is “n.i”.

In the case of `OC[C@H]1[C@@H](O)[C@H](O)[C@@H](O)CN1C(=S)Nc1ccccc1` [Compound 15, N-(N′-Phenylthiocarbamoyl)-1-deoxy-L-idonojirimycin], in experiment [1], the “Ki α-Manase” value is given as “n.i”. The Ki was determined as 293 ± 18 µM in experiment [2] (Ki α-Glcase1, mean ± SD); 294 ± 18 µM in experiment [4]; 443 ± 22 µM on isomaltase (α-Glcase2) (setting [9]); 271 ± 17 µM in experiment [5]; 77 ± 16 µM in experiment [6]. For the same compound, the “Ki β-Galase” value in experiment [3] was “n.i”.
